Reference: US8436012B2, “Imidazopyridin-2-one derivatives” (Daiichi Sankyo Company, Limited, priority 2008, dated 2013)

Experiments:
WM-266-4 cells = experiment: Cell Proliferation Inhibitory Test; format: cell-based; conditions: Homo sapiens, 72 h, cultured three days with test compound, MTT, read-out: 50% cell proliferation inhibitory activity (GI50 value)
Procedure: WM-266-4 cells (ATCC, USA) were seeded in a 96-well plate and cultured overnight. Then, serial dilutions of the sample containing the test compound were prepared, added to each well and cultured another three days. Thereafter, the cell amount in each well was measured by MTT (MOSMANN, T., Rapid colorimetric assay for cellular growth and survival: application to proliferation and cytotoxicity assays. J. Immunol. Methods, 65, 55-63 (1983)). The 50% cell proliferation inhibitory activity (GI50 value) was calculated from the following formula (3). 100×[(T−T0)/(C−T0)]=50 (3)
Here, T represents values from the test compound added wells, C represents the value from the well to which the test compound was not added for three days, and To represents an initial measured value at the time of addition of the test compound.

human mTOR = target: T1, human mTOR (Homo sapiens, UniProt P42345); experiment: mTOR Kinase Activity Inhibition Test; format: biochemical; conditions: His-tagged mTOR (1362C), biotinylated peptide substrate, ATP, 3 hours at room temperature, fluorescence resonance energy transfer 665 nm/620 nm; read-out: IC50 value of mTOR enzyme inhibitory activity
T1 construct: the portion corresponding to 1362-2549aa at the C terminus of human mTOR; made in house
Procedure: The kinase activity of mTOR was measured in the presence or absence of a test compound. A substrate peptide is phosphorylated by mTOR kinase activity. A complex of streptavidin-XL665 and anti-phosphorylated S6K (Thr389) antibody/anti-mouse IgG-cryptate binds to this phosphorylated peptide. At this moment, fluorescence resonance energy transfer takes place from antibody/anti-mouse IgG-cryptate exposed to light excitation to XL665, which results in emission of fluorescence at 665 nm. The mTOR kinase activity is detected using this principle.
(1) Sample Preparation and Enzymatic Reaction
An HEK293 cell line that constitutively expresses a His tag fused human mTOR has been established. His tag was introduced into the N terminus of the portion corresponding to 1362-2549aa at the C terminus of human mTOR. Cell lysate was prepared from this HEK293 cell line constitutively expressing His-tagged mTOR (1362C), and His-tagged mTOR (1362C) was purified using the His tag affinity according to a conventional method.
Next, an mTOR enzyme solution was prepared, which contains the aforementioned His-tagged mTOR (1362C) enzyme, 8 μg/mL of biotinylated peptide (Biotin-Ahx-[…]-amide (Sigma)), as well as 50 mM HEPES (pH 7.5), 20 mM MnCl2, 1 mg/ml BSA, an appropriate amount of protease inhibitor cocktail (Complete EDTA free, Roche), 100 ng/ml Calyculin A, 4 μg/ml Cantharidin and 10 mM DTT as other components.
The test compound was dissolved in DMSO, and serial dilutions were prepared with 20 μM ATP solution (50 mM HEPES (pH 7.5), 20 μM ATP) to achieve concentrations necessary for the assay. 5 μL of this compound solution was applied to each well of a 384 well small volume white Greiner plate.
5 μL of mTOR enzyme solution was added to the aforementioned well containing the test compound. After mixing, the mixture was incubated at room temperature for 3 hours to carry out the enzymatic reaction.
The same operation was performed with a solution of DMSO in 20 μM ATP solution as a positive control and with a solution of DMSO in 50 mM HEPES (pH 7.5) as a negative control.
(2) Detection of Enzymatic Reaction
After the enzymatic reaction, 5 μl each of an europium solution (a solution of anti-mouse IgG-cryptate (SCETI Medical Labo K.K.) and anti-phosphorylated S6K (Thr389) antibody (Cell Signaling Technology Inc.) in 50 mM HEPES (pH 7.5), 100 mM EDTA and 1.5 mg/ml BSA) and an XL665 solution (a solution of streptavidin-XL665 (SCETI Medical Labo K.K.) in 50 mM HEPES (pH 7.5), 100 mM EDTA, 0.8 M KF and 1.5 mg/ml BSA) were added in this order and then mixed. The mixture was incubated at 4° C. overnight. On the following day, the mixture was returned to room temperature and irradiated with excitation light at 337 nm. Fluorescence at 620 nm and fluorescence at 665 nm were measured with RUBYstar (BMG).
The mTOR inhibitory activity (%) was calculated using the ratio calculated from the measured values as an index of enzyme activity. Here, the ratio was calculated from the following formula (I). Ratio=10000×665 nm fluorescence value/620 nm fluorescence value (1)
The mTOR enzyme inhibitory activity (%) was calculated from the following formula (2). mTOR enzyme inhibitory activity (%)=100×[(P−S)/(P−N)] (2)
P: Ratio in well of positive control
N: Ratio in well of negative control
S: Ratio in well containing test compound
Further, an optimal curve was calculated based upon each concentration of the test compound prepared in serial dilutions and the mTOR enzyme inhibitory activity (%) at that concentration. The concentration at which 50% inhibition occurred was calculated as the IC50 value of mTOR enzyme inhibitory activity.

T1 sequence (P42345 1362-2549): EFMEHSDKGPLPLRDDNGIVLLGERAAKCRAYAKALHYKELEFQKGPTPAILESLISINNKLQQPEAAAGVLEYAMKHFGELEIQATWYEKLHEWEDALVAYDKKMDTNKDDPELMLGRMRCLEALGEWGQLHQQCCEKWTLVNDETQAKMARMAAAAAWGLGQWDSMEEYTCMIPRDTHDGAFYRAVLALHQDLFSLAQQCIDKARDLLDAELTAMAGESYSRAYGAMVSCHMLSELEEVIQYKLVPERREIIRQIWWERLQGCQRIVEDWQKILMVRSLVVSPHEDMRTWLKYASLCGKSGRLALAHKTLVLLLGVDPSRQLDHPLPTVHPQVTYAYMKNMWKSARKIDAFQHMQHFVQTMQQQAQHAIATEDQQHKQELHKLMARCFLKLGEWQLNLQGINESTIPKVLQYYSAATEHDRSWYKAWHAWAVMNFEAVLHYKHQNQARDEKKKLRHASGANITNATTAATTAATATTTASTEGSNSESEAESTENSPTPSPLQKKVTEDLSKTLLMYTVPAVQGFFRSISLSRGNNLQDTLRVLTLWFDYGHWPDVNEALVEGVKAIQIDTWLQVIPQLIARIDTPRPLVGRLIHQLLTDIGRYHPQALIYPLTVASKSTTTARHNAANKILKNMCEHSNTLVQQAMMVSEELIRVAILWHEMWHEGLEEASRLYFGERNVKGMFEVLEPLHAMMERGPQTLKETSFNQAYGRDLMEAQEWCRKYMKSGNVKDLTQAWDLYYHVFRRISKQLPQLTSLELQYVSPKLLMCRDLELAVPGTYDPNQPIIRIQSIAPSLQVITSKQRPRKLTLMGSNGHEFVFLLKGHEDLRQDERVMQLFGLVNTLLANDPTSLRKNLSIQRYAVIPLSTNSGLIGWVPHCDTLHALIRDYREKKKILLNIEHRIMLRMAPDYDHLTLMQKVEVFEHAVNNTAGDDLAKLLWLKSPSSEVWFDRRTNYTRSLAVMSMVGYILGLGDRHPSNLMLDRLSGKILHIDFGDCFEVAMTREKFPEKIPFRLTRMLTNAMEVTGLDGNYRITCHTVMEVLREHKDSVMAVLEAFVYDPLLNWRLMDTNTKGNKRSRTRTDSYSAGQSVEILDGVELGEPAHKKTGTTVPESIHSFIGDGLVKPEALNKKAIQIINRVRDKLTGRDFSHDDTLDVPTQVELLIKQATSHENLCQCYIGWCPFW

SMILES | IC50 (human mTOR) | GI50 (WM-266-4 cells)
CO[C@H]1COC[C@H]1Cn1c(=O)[nH]c2ncc(-c3cnc4[nH]ccc4c3)cc21 (racemic) [Example 63] | < 50 nM | < 3000 nM
O=c1[nH]c2ncc(-c3cnc4[nH]ccc4c3)cc2n1C[C@H]1COC[C@@H](O)C1 (racemic) [Example 65, 1-{[cis-5-Hydroxytetrahydro-2H-pyran-3-yl]methyl}-6-(1H-pyrrolo[2,3-b]pyridin-5-yl)-1,3-dihydro-2H-imidazo[4,5-b]pyridin-2-one] | < 50 nM | < 3000 nM
O=c1[nH]c2ncc(-c3cnc4[nH]ccc4c3)cc2n1C[C@H]1COC[C@H](O)C1 (racemic) [Example 66, 1-{[trans-5-Hydroxytetrahydro-2H-pyran-3-yl]methyl}-6-(1H-pyrrolo[2,3-b]pyridin-5-yl)-1,3-dihydro-2H-imidazo[4,5-b]pyridin-2-one] | < 50 nM | 
CO[C@@H]1COC[C@H](Cn2c(=O)[nH]c3ncc(-c4cnc5[nH]ccc5c4)cc32)C1 (racemic) [Example 67, 1-{[cis-5-Methoxytetrahydro-2H-pyran-3-yl]methyl}-6-(1H-pyrrolo[2,3-b]pyridin-5-yl)-1,3-dihydro-2H-imidazo[4,5-b]pyridin-2-one] | < 50 nM | < 3000 nM
O=c1[nH]c2ncc(-c3cccc4ncccc34)cc2n1CC1CCOCC1 [Example 13, 6-Quinolin-5-yl-1-(tetrahydro-2H-pyran-4-ylmethyl)-1,3-dihydro-2H-imidazo[4,5-b]pyridin-2-one] | 100 to 5000 nM | 
O=C1Cc2cc(-c3cnc4[nH]c(=O)n(CC5CCOCC5)c4c3)cnc2N1 [Example 30, 6-(2-Oxo-2,3-dihydro-1H-pyrrolo[2,3-b]pyridin-5-yl)-1-(tetrahydro-2H-pyran-4-ylmethyl)-1,3-dihydro-2H-imidazo[4,5-b]pyridin-2-one] | 100 to 5000 nM | 
O=C1CCOCC1Cn1c(=O)[nH]c2ncc(-c3cnc4[nH]ccc4c3)cc21 (centres unmarked) [Example 106, 1-[(4-Oxotetrahydro-2H-pyran-3-yl)methyl]-6-(1H-pyrrolo[2,3-b]pyridin-5-yl)-1,3-dihydro-2H-imidazo[4,5-b]pyridin-2-one] | < 50 nM | 

Continued, in another order:

IC50 (human mTOR) | SMILES | GI50 (WM-266-4 cells)
< 50 nM | O=c1[nH]c2ncc(-c3cnc4[nH]ccc4c3)cc2n1C[C@@H]1COC[C@H]1O (racemic) [Example 61] | < 3000 nM
< 50 nM | O=c1[nH]c2ncc(-c3cnc4[nH]ccc4c3)cc2n1C[C@@H]1COC[C@@H]1O (racemic) [Example 62] | < 3000 nM
< 50 nM | CO[C@@H]1COC[C@H]1Cn1c(=O)[nH]c2ncc(-c3cnc4[nH]ccc4c3)cc21 (racemic) [Example 64, 1-{[trans-4-Methoxytetrahydrofuran-3-yl]methyl}-6-(1H-pyrrolo[2,3-b]pyridin-5-yl)-1,3-dihydro-2H-imidazo[4,5-b]pyridin-2-one] | < 3000 nM
100 to 5000 nM | O=c1[nH]c2ncc(-c3cncc4ccccc34)cc2n1CC1CCOCC1 [Example 11, 6-Isoquinolin-4-yl-1-(tetrahydro-2H-pyran-4-ylmethyl)-1,3-dihydro-2H-imidazo[4,5-b]pyridin-2-one] | 
100 to 5000 nM | O=c1[nH]c2ncc(-c3ccnc4ccccc34)cc2n1CC1CCOCC1 [Example 12, 6-Quinolin-4-yl-1-(tetrahydro-2H-pyran-4-ylmethyl)-1,3-dihydro-2H-imidazo[4,5-b]pyridin-2-one] | 
< 50 nM | O=c1[nH]c2ncc(-c3cnc4[nH]cnc4c3)cc2n1CC1CCOCC1 [Example 22, 1-(Tetrahydro-2H-pyran-4-ylmethyl)-1,3-dihydro-2H,3′H-6,6′-biimidazo[4,5-b]pyridin-2-one] | 
100 to 5000 nM | O=C(O)c1cc2cc(-c3cnc4[nH]c(=O)n(CC5CCOCC5)c4c3)ccc2[nH]1 [Example 80, 5-[2-Oxo-1-(tetrahydro-2H-pyran-4-ylmethyl)-2,3-dihydro-1H-imidazo[4,5-b]pyridin-6-yl]-1H-indole-2-carboxylic acid] | 
